# Experimental data as given in US20160169896A1, “Methods for Predicting and Treating Bone Metastases in Prostate Cancer Patients” (INSERM (institut NAtional de la Sante et de la Recherche …, priority 2012, published 2016).
# System: PC3 cells
# Assay: Real-time PCR of factor expression in PC3 cells treated with the ERRα inverse agonist XCT790 versus DMSO
# Format: cell-based, human
# Details: XCT790 5 10^−7M, 24 hours, compared to DMSO control
# Experimental: PC3 cell line was obtained from the American Type Culture Collection (ATCC, Manassas, Va., USA). PC3 cells are routinely cultured in F12K nutrient mixture and DMEM medium (Gibco/Invitrogen; Carlsbad, Calif., USA) respectively supplemented with 10% (v/v) fetal bovine serum (FBS; Perbio/Thermo scientific; Rockford, Ill., USA) and 1% (v/v) penicillin/streptomycin (Invitrogen; Carlsbad, Calif., USA) at 37° C. in a 5% CO2 incubator.
# Human ERRα cDNA (WT) was obtained from mRNA extracted from BO2-FRT cells, by using RT-PCR with specific primers ((NM_004451.3) (Fradet et al, 2011). Amplimers were sequenced for verification. The pcDNA5/ERRα-WT (WT) and empty pcDNA5 (used as control (CT)) constructs were transfected using Transfast (Promega). For clonal selection, cells were cultured for 4 weeks in the presence of puromycin (1 μg/ml PC3) (Invitrogen). XCT790, an inverse agonist of ERRα was tested in vitro on PC3 cells at 5.10^−7M compare to DMSO for 24 h.
# Total RNA was extracted with Trizol reagent (Sigma) from PC3 cells, PC3 tumors, MC3T3-E1 cells. Samples of total RNA (2 μg) were reverse-transcribed using random hexamer (Promega) and the first strand synthesis kit of Superscript™ II (Invitrogen). Real-time RT-PCR was performed on a Roche Lightcycler Module (Roche) with primers specific for human and mouse. Real-time RT-PCR was carried out by using (SYBR Green; Qiagen,) on the LightCycler system on (Roche) according to the manufacturer's instructions with an initial step for 10 min at 95° C. followed by 40 cycles of 20 sec at 95° C., 10 sec at Tm (see Tables 1-2) and 10 sec at 72° C. We verified that a single peak was obtained for each product using the Roche software. Amplimers were all normalized to corresponding L32 values. Data analysis was carried out using the comparative Ct method: in real-time each replicate average genes CT was normalized to the average CT of L32 by subtracting the average CT of L32 from each replicate to give the ACT. Results are expressed as Log^-2 ΔΔCT with ΔΔCT equivalent to the ΔCT of the genes in PC3 (clone, XCT), tumors or treated MC3T3-E1 subtracting to the ACT of the endogenous control (empty vectors control for clones or tumors, DMSO for the XCT experiment and empty vectors control conditioned media treated MC3T3-E1 respectively).
# To confirm the regulation of the factors identified in PC3 over-expressing ERRα, we treat PC3 cells by the inverse agonist XCT790 (5 10^−7M) for 24 hours. XCT790 is able to block the interaction between ERRα and his co-activators PGC1a and b that will have as a consequence the inhibition of ERRα transcriptional activity.
smiles,measurement,value
"COc1cc(/C=C(\C#N)C(=O)Nc2nnc(C(F)(F)F)s2)ccc1OCc1ccc(C(F)(F)F)cc1C(F)(F)F [XCT790, (2E)-3-(4-{[2,4-bis(trifluoromethyl)benzyl]oxy}-3-methoxyphenyl)-2-cyano-N-[5-(trifluoromethyl)-1,3,4-thiadiazol-2-yl]acrylamide]",CK (cathepsin K) expression (real-time PCR),no CK were found statistically down-regulated
same,ET1 expression (real-time PCR),identified as direct ERRα/PGC1 target genes
same,MCP1 expression (real-time PCR),statistically down-regulated
same,OPG expression (real-time PCR),statistically down-regulated
same,Runx2 expression (real-time PCR),statistically down-regulated
same,Wnt3a expression (real-time PCR),identified as direct ERRα/PGC1 target genes
same,Wnt5a expression (real-time PCR),identified as direct ERRα/PGC1 target genes
